How the values were obtained:
[1] = Novartis everolimus study, rats; cited from earlier work
[2] = oral; cited from earlier work
Hantavirus = details: 0.05 μM, lowest concentration studied; cited from earlier work

CO[C@H]1C[C@@H]2CC[C@@H](C)[C@@](O)(O2)C(=O)C(=O)N2CCCC[C@H]2C(=O)O[C@H]([C@H](C)C[C@@H]2CC[C@@H](OCCO)[C@H](OC)C2)CC(=O)[C@H](C)/C=C(\C)[C@@H](O)[C@@H](OC)C(=O)[C@H](C)C[C@H](C)/C=C/C=C/C=C/1C [everolimus]
tissue distribution, highest drug concentrations [1]: highest drug concentrations were in the gastrointestinal tract and liver

CO[C@H]1C[C@@H]2CC[C@@H](C)[C@@](O)(O2)C(=O)C(=O)N2CCCC[C@H]2C(=O)O[C@H]([C@H](C)C[C@@H]2CC[C@@H](O)[C@H](OC)C2)CC(=O)[C@H](C)/C=C(\C)[C@@H](O)[C@@H](OC)C(=O)[C@H](C)C[C@H](C)/C=C/C=C/C=C/1C [sirolimus, Rapamycin]
fraction unbound (Protein binding): 0.049 | bioavailability [2]: ~14%

CO[C@H]1C[C@@H]2CC[C@@H](C)[C@@](O)(O2)C(=O)C(=O)N2CCCC[C@H]2C(=O)O[C@H]([C@H](C)C[C@@H]2CC[C@@H](OC(=O)C(C)(CO)CO)[C@H](OC)C2)CC(=O)[C@H](C)/C=C(\C)[C@@H](O)[C@@H](OC)C(=O)[C@H](C)C[C@H](C)/C=C/C=C/C=C/1C [temsirolimus]
reduction in virus titers (Hantavirus): 50%

Reference: patent US20240100025A1, “Materials and Methods for Treating Viral and Other Medical Conditions” (Biotronik AG, priority 2020, published 2024)
